Read-outs that look alike come from different tables or passages of the source.
Assays:
[1] = system: 60 cancer cell lines (NCI 60 cancer cell line series); experiment: NCI-DTP in vitro cancer screen, sulforhodamine B (SRB) growth inhibition, 48 hour exposure; assay type: cell-based, human
Summary of the method: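 NCI-DTP panel of 60 cancer cell lines plated day 0 at line-specific densities, exposed from day 1 to compound at 5 ten-fold-spaced doses in duplicate wells. After 48 h, cell mass stained with sulforhodamine B; −log GI50 derived from dose–response curves, averaged, and classed Low, Medium or High sensitivity.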

[2] = system: 60 cancer cell lines (NCI 60 cancer cell line series); details: cited from earlier work

Substance: Carboplatin
- classification of cell line as Low(1), Medium(2), High(3) sensitivity to compound ([1]; Breast BT-549 CL5013): 2
- classification of cell line as Low(1), Medium(2), High(3) sensitivity to compound ([1]; Breast HS-578T CL5006): 2
- classification of cell line as Low(1), Medium(2), High(3) sensitivity to compound ([1]; Breast MCF7(I) CL5001): 2
- classification of cell line as Low(1), Medium(2), High(3) sensitivity to compound ([1]; Breast MCF7/ADRr CL5002): 2
- classification of cell line as Low(1), Medium(2), High(3) sensitivity to compound ([1]; Breast MDA-MB-231 CL5005): 1
- classification of cell line as Low(1), Medium(2), High(3) sensitivity to compound ([1]; Breast MDA-MB-435 CL5011): 1
- classification of cell line as Low(1), Medium(2), High(3) sensitivity to compound ([1]; Breast MDA-N CL5012): 2
- classification of cell line as Low(1), Medium(2), High(3) sensitivity to compound ([1]; Breast T-47D CL5014): 1
- classification of cell line as Low(1), Medium(2), High(3) sensitivity to compound ([1]; CNS SF-268 CL12014): 3
- classification of cell line as Low(1), Medium(2), High(3) sensitivity to compound ([1]; CNS SF-295 CL12015): 3
- classification of cell line as Low(1), Medium(2), High(3) sensitivity to compound ([1]; CNS SF-539 CL12016): 2
- classification of cell line as Low(1), Medium(2), High(3) sensitivity to compound ([1]; CNS SNB-19 CL12002): 2
- classification of cell line as Low(1), Medium(2), High(3) sensitivity to compound ([1]; CNS SNB-75(I) CL12005): 2
- classification of cell line as Low(1), Medium(2), High(3) sensitivity to compound ([1]; CNS U251(I) CL12009): 2
- classification of cell line as Low(1), Medium(2), High(3) sensitivity to compound ([1]; Colon COLO-250 CL4010): 1
- classification of cell line as Low(1), Medium(2), High(3) sensitivity to compound ([1]; Colon HCC-2998 CL4002): 1
- classification of cell line as Low(1), Medium(2), High(3) sensitivity to compound ([1]; Colon HCT-15 CL4015): 1
- classification of cell line as Low(1), Medium(2), High(3) sensitivity to compound ([1]; Colon HCT-116 CL4003): 2
- classification of cell line as Low(1), Medium(2), High(3) sensitivity to compound ([1]; Colon HT29(I) CL4001): 1
- classification of cell line as Low(1), Medium(2), High(3) sensitivity to compound ([1]; Colon KM12 CL4017): 1
- classification of cell line as Low(1), Medium(2), High(3) sensitivity to compound ([1]; Colon SW-620 CL4009): 2
- classification of cell line as Low(1), Medium(2), High(3) sensitivity to compound ([1]; Leukemia CCRF-CEM(I) CL7003): 2
- classification of cell line as Low(1), Medium(2), High(3) sensitivity to compound ([1]; Leukemia HL-60(I) CL7008): 3
- classification of cell line as Low(1), Medium(2), High(3) sensitivity to compound ([1]; Leukemia K562(I) CL7005): 2
- classification of cell line as Low(1), Medium(2), High(3) sensitivity to compound ([1]; Leukemia MOLT-4 CL7006): 2
- classification of cell line as Low(1), Medium(2), High(3) sensitivity to compound ([1]; Leukemia RPMI-8226(I) CL7010): 2
- classification of cell line as Low(1), Medium(2), High(3) sensitivity to compound ([1]; Leukemia SR CL7019): 2
- classification of cell line as Low(1), Medium(2), High(3) sensitivity to compound ([1]; Melanoma LOX IMVI CL10001): 2
- classification of cell line as Low(1), Medium(2), High(3) sensitivity to compound ([1]; Melanoma M14 CL10014): 2
- classification of cell line as Low(1), Medium(2), High(3) sensitivity to compound ([1]; Melanoma MALME-3M CL10002): 2
- classification of cell line as Low(1), Medium(2), High(3) sensitivity to compound ([1]; Melanoma SK-MEL-2 CL10005): 2
- classification of cell line as Low(1), Medium(2), High(3) sensitivity to compound ([1]; Melanoma SK-MEL-28 CL10008): 2
- sensitivity classification Low(1)/Medium(2)/High(3) ([1]; NSCLC NCI-H23(I) CL1001): 3
- sensitivity classification Low(1)/Medium(2)/High(3) ([1]; NSCLC NCI-H332M CL1017): 1
- sensitivity classification Low(1)/Medium(2)/High(3) ([1]; NSCLC NCI-H460 CL1021): 3
- sensitivity classification Low(1)/Medium(2)/High(3) ([1]; NSCLC NCI-H522 CL1003): 3
- sensitivity classification Low(1)/Medium(2)/High(3) ([1]; Ovarian IGROV1 CL6010): 3
- sensitivity classification Low(1)/Medium(2)/High(3) ([1]; Ovarian OVCAR-3 CL6001): 2
- sensitivity classification Low(1)/Medium(2)/High(3) ([1]; Ovarian OVCAR-4 CL6002): 2
- sensitivity classification Low(1)/Medium(2)/High(3) ([1]; Ovarian OVCAR-5 CL6003): 1
- sensitivity classification Low(1)/Medium(2)/High(3) ([1]; Ovarian OVCAR-8 CL6005): 2
- sensitivity classification Low(1)/Medium(2)/High(3) ([1]; Ovarian SK-OV-3 CL6011): 2
- sensitivity classification Low(1)/Medium(2)/High(3) ([1]; Prostate DU-145 CL11003): 2
- sensitivity classification Low(1)/Medium(2)/High(3) ([1]; Prostate PC-3(I) CL11001): 1
- sensitivity classification Low(1)/Medium(2)/High(3) ([1]; Renal 786-0 CL9018): 2
- sensitivity classification Low(1)/Medium(2)/High(3) ([1]; Renal A498 CL9013): 1
- sensitivity classification Low(1)/Medium(2)/High(3) ([1]; Renal ACHN CL9023): 2
- sensitivity classification Low(1)/Medium(2)/High(3) ([1]; Renal CAKI-1 CL9015): 2
- sensitivity classification Low(1)/Medium(2)/High(3) ([1]; Renal RXF-393 CL9016): 2
- sensitivity classification Low(1)/Medium(2)/High(3) ([1]; Renal SN12C CL9008): 2
- sensitivity classification Low(1)/Medium(2)/High(3) ([1]; Renal TK10 CL9024): 1
- sensitivity classification Low(1)/Medium(2)/High(3) ([1]; Renal UO-31 CL9004): 2
- −Log (GI50) ([2]; Breast BT-549 CL5013): 3.7
- −Log (GI50) ([2]; Breast HS-578T CL5006): 3.8
- −Log (GI50) ([2]; Breast MCF7(I) CL5001): 3.9
- −Log (GI50) ([2]; Breast MCF7/ADRr CL5002): 3.8
- −Log (GI50) ([2]; Breast MDA-MB-231 CL5005): 3.6
- −Log (GI50) ([2]; Breast MDA-MB-435 CL5011): 3.7
- −Log (GI50) ([2]; Breast MDA-N CL5012): 3.8
- −Log (GI50) ([2]; Breast T-47D CL5014): 3.6
- −Log (GI50) ([2]; CNS SF-268 CL12014): 4.3
- −Log (GI50) ([2]; CNS SF-295 CL12015): 4.2
- −Log (GI50) ([2]; CNS SF-539 CL12016): 4.1
- −Log (GI50) ([2]; CNS SNB-19 CL12002): 3.8
- −Log (GI50) ([2]; CNS SNB-75(I) CL12005): 4.0
- −Log (GI50) ([2]; CNS U251(I) CL12009): 4.2
- −Log (GI50) ([2]; Colon COLO-250 CL4010): 3.6
- −Log (GI50) ([2]; Colon HCC-2998 CL4002): 3.7
- −Log (GI50) ([2]; Colon HCT-15 CL4015): 3.6
- −Log (GI50) ([2]; Colon HCT-116 CL4003): 3.7
- −Log (GI50) ([2]; Colon HT29(I) CL4001): 3.7
- −Log (GI50) ([2]; Colon KM12 CL4017): 3.7
- −Log (GI50) ([2]; Colon SW-620 CL4009): 3.8
- −Log (GI50) ([2]; Leukemia CCRF-CEM(I) CL7003): 4.2
- −Log (GI50) ([2]; Leukemia HL-60(I) CL7008): 4.5
- −Log (GI50) ([2]; Leukemia K562(I) CL7005): 3.8
- −Log (GI50) ([2]; Leukemia MOLT-4 CL7006): 4.1
- −Log (GI50) ([2]; Leukemia RPMI-8226(I) CL7010): 3.8
- −Log (GI50) ([2]; Leukemia SR CL7019): 4.1
- −Log (GI50) ([2]; Melanoma LOX IMVI CL10001): 4.2
- −Log (GI50) ([2]; Melanoma M14 CL10014): 4.0
- −Log (GI50) ([2]; Melanoma MALME-3M CL10002): 4.1
- −Log (GI50) ([2]; Melanoma SK-MEL-2 CL10005): 3.8
- −Log (GI50) ([2]; Melanoma SK-MEL-5 CL10007): 4.0
- −Log (GI50) ([2]; Melanoma SK-MEL-28 CL10008): 3.8
- −Log (GI50) ([2]; Melanoma UACC-62 CL10020): 4.4
- −Log (GI50) ([2]; Melanoma UACC-257 CL10021): 3.9
- −Log (GI50) ([2]; NSCLC A549/ATCC CL1004): 4.0
- −Log (GI50) ([2]; NSCLC EKVX CL1008): 3.7
- −Log (GI50) ([2]; NSCLC HOP-62 CL1026): 3.9
- −Log (GI50) ([2]; NSCLC HOP-92 CL1029): 4.0
- −Log (GI50) ([2]; NSCLC NCI-H23(I) CL1001): 4.3
- −Log (GI50) ([2]; NSCLC NCI-H226 CL1013): 3.9
- −Log (GI50) ([2]; NSCLC NCI-H332M CL1017): 3.7
- −Log (GI50) ([2]; NSCLC NCI-H460 CL1021): 4.5
- −Log (GI50) ([2]; NSCLC NCI-H522 CL1003): 4.3
- −Log (GI50) ([2]; Ovarian IGROV1 CL6010): 4.3
- −Log (GI50) ([2]; Ovarian OVCAR-3 CL6001): 4.2
- −Log (GI50) ([2]; Ovarian OVCAR-4 CL6002): 4.1
- −Log (GI50) ([2]; Ovarian OVCAR-5 CL6003): 3.6
- −Log (GI50) ([2]; Ovarian OVCAR-8 CL6005): 3.7
- −Log (GI50) ([2]; Ovarian SK-OV-3 CL6011): 3.7
- −Log (GI50) ([2]; Prostate DU-145 CL11003): 3.9
- −Log (GI50) ([2]; Prostate PC-3(I) CL11001): 3.6
- −Log (GI50) ([2]; Renal 786-0 CL9018): 4.0
- −Log (GI50) ([2]; Renal A498 CL9013): 3.7
- −Log (GI50) ([2]; Renal ACHN CL9023): 4.1
- −Log (GI50) ([2]; Renal CAKI-1 CL9015): 4.1
- −Log (GI50) ([2]; Renal RXF-393 CL9016): 4.2
- −Log (GI50) ([2]; Renal SN12C CL9008): 3.8
- −Log (GI50) ([2]; Renal TK10 CL9024): 3.7
- −Log (GI50) ([2]; Renal UO-31 CL9004): 3.8

— US20030129629A1, “Methods and compositions for the identification, assessment, prevention, and therapy of human cancers” (Millennium Pharmaceuticals, Inc., priority 2000, published 2003)
